Patent US7141394B2, “More stable analog of isopropyl thiogalactoside for induction of protein expression” (Iowa State University Research Foundation, Inc., priority 2003, dated 2006)
“Also recorded” adds a separate entry of the source.

Key:
lac promoter = assay: EGFP fluorescence reporter assay of induction of protein expression under the lac promoter; assay type: cell-based, E. coli; conditions: for EGFP fluorescence emission at 507 nm after excitation at 488 nm, normalized for the number of cells: induced at OD600 0.7, versus culture without inducer
Text: To compare the ability of the C-glycoside to take the place of IPTG in the induction of protein expression, assays of promoter activity that rely on production of a fluorescent protein were pursued. Reporters for gene activity in bacteria that rely on green fluorescent protein (GFP) and its variants have become very popular as they have been validated by direct comparison to traditional reporter assays using either chloroamphenicol acetyltransferase or β-galactosidase. For bacterial studies, the enhanced green fluorescent protein (EGFP) is particularly useful as it is not toxic to E. coli like the wild type GFP itself and the protein folds and autocatalyzes formation of its fluorophore with a half-life of less than 45 minutes rather than hours. Therefore, the gene for EGFP (BD Biosciences) was ligated into a pET vector plasmid using NcoI and EcoRI in order to have control of EGFP protein expression with a lac promoter system and to have low background protein expression levels. This plasmid was transformed into E. coli BL21 DE(3) cells for protein expression studies. The cells were grown to an optical density of 0.7 (at 600 nm) and then protein production was induced with either IBCG or IPTG. The fluorescence emission at 507 nm after excitation at 488 nm, normalized for the number of cells, was plotted as a function of time (data not shown) as previously reported.

[1] = Stability of the inducer in solution on storage; assay type: physicochemical; conditions: ambient / room temperature; in water
Text: This improved stability feature of IBCG also results in more accurate concentrations of the compound when used in experiments.
The latter property is especially valuable for small scale culture induction and for cases in which a more precise concentration of inducer is desirable.

[2] = E. coli BL21 DE(3) with pET-EGFP plasmid

| SMILES | EGFP fluorescence emission at 507 nm after excitation at 488 nm, normalized for the number of cells (lac promoter; [2]) | stability in solution [1] | EGFP fluorescence of IBCG induced cells compared with IPTG induced cells (lac promoter; E. coli BL21 DE(3) with pET-EGFP plasmid, induction times of greater than four hours) | cell permeability (lac promoter; E. coli cells, inferred from induction of protein expression) |
| --- | --- | --- | --- | --- |
| CC(C)S[C@@H]1O[C@H](CO)[C@H](O)[C@H](O)[C@H]1O [IPTG, isopropyl-β-D-thiogalactopyranoside, reference compound] | considerably larger | – | – | – |
| CC(C)CC1OC(CO)C(O)C(O)C1O [IBCG, 1-isobutyl-,β-D-galactose] | considerably larger | stable in solution at ambient temperature; also recorded: can be autoclaved in water and stored in room temperature | even greater fluorescence than the IPTG induced cells | retains cell permeability |
